Source: patent EP0615756B1 (priority 1993, dated 1994)
Where a name gives a salt, the structure may show the parent alone. Read-outs that look alike come from different tables or passages of the source.

Tests used:
[1] = cited from earlier work
Sprague-Dawley rats = experiment: Rat cold ethanol tail-flick test; assay type: in vivo; conditions: for % Analgesic effect 10% / % Analgesic effect 20% / % Analgesic effect 50%: 25 micromole per kg, intramuscularly
[2] = test system: New Zealand white rabbits; experiment: Paw pressure test; assay type: in vivo; conditions: Figure 20
[3] = Percutaneous transport study in modified Franz diffusion cells; conditions: 37 °C
[4] = Plasma concentration after intramuscular injection (HPLC) in the paw pressure study; conditions: for half-life: rabbit, plasma, im
[5] = Figure 15; between 17 and 28 hours, p<0.05
[6] = Anesthesiology, vol.74, 53, 1991
[7] = in sesame oil, duration in days

Oc1ccc2c(c1)[C@@]13CCCC[C@@]1(O)[C@@H](C2)N(CC1CCC1)CC3 [butorphanol]
dose needed to elicit the same analgesic effect [1, 6]: 2 mg

O=C(Oc1ccc2c3c1O[C@H]1[C@@H](O)CC[C@@]4(O)[C@@H](C2)N(CC2CCC2)CC[C@]314)c1ccccc1 [nalbuphine benzoate]
% Analgesic effect 10% (Sprague-Dawley rats; [7]): 4.0 D
% Analgesic effect 20% (Sprague-Dawley rats; [7]): 4.0 D
% Analgesic effect 50% (Sprague-Dawley rats; [7]): 3.5 D

CCCCCCC(=O)Oc1ccc2c3c1O[C@H]1[C@@H](O)CC[C@@]4(O)[C@@H](C2)N(CC2CCC2)CC[C@]314 [nalbuphine enanthate]
% Analgesic effect 10% (Sprague-Dawley rats; [7]): 3.6 D
% Analgesic effect 20% (Sprague-Dawley rats; [7]): 3.4 D
% Analgesic effect 50% (Sprague-Dawley rats; [7]): 3.0 D

CC(C)(C)C(=O)Oc1ccc2c3c1O[C@H]1[C@@H](O)CC[C@@]4(O)[C@@H](C2)N(CC2CCC2)CC[C@]314 [nalbuphine pivalate]
% Analgesic effect 10% (Sprague-Dawley rats; [7]): 3.8 D
% Analgesic effect 20% (Sprague-Dawley rats; [7]): 3.6 D
% Analgesic effect 50% (Sprague-Dawley rats; [7]): 3.2 D

CCCCCCCCCC(=O)Oc1ccc2c3c1O[C@H]1[C@@H](O)CC[C@@]4(O)[C@@H](C2)N(CC2CCC2)CC[C@]314 [nalbuphine decanoate]
% Analgesic effect 10% (Sprague-Dawley rats; [7]): 8.2 D
% Analgesic effect 20% (Sprague-Dawley rats; [7]): 7.5 D
% Analgesic effect 50% (Sprague-Dawley rats; [7]): 6.7 D
10% analgesic effect (Sprague-Dawley rats; table 2, longest duration): 197 h
50% analgesic effect (Sprague-Dawley rats; table 2, longest duration): 161 h
analgesic effect for intramuscular injection (duration) ([2]; 0.): 18 h
cumulative amount ([3]; under 24 hours, 5% nalbuphine decanoate in a jel of 2% CMC Na): 1.04±0.30 µ g/cm^2
cumulative amount ([3]; under 24 hours, jell containing 10% terpineol (5% nalbuphine decanoate, 2% CMC Na)): 3.31±0.45 µg/cm^2
cumulative amount ([3]; under 48 hours, 5% nalbuphine decanoate in a jel of 2% CMC Na): 1.67±0.38 µg/cm^2
cumulative amount ([3]; under 48 hours, jell containing 10% terpineol (5% nalbuphine decanoate, 2% CMC Na)): 5.78±0.81 µ g/cm^2
cumulative amount ([3]; under 72 hours, 5% nalbuphine decanoate in a jel of 2% CMC Na): 3.17±0.35 µ g/cm^2
cumulative amount ([3]; under 72 hours, jell containing 10% terpineol (5% nalbuphine decanoate, 2% CMC Na)): 9.87±1.44 µg/cm^2
half-life ([4]; […]): 26 h
increase of duration compared with nalbuphine hydrochloride ([4]; rabbits, Figure 19): 30 times

Oc1ccc2c3c1O[C@H]1[C@@H](O)CC[C@@]4(O)[C@@H](C2)N(CC2CCC2)CC[C@]314 [nalbuphine]
amount of released nalbuphine free base [5]: less in preparations with sesame oil than with peanut oil ester and the control

CCC(=O)Oc1ccc2c3c1O[C@H]1[C@@H](O)CC[C@@]4(O)[C@@H](C2)N(CC2CCC2)CC[C@]314 [nalbuphine propionate]
% Analgesic effect 10% (Sprague-Dawley rats; duration in hours): 12 H
% Analgesic effect 20% (Sprague-Dawley rats; duration in hours): 11 H
% Analgesic effect 50% (Sprague-Dawley rats; duration in hours): 10 H
50% analgesic effect (Sprague-Dawley rats; table 2): 10 h

CN1CC[C@]23c4c5ccc(O)c4O[C@H]2[C@@H](O)C=C[C@H]3[C@H]1C5 [morphine]
dose needed to elicit the same analgesic effect ([1]; in vivo): 10 mg

Oc1ccc2c3c1O[C@H]1[C@@H](O)CC[C@@]4(O)[C@@H](C2)N(CC2CCC2)CC[C@]314 [nalbuphine hydrochloride, reference compound]
% Analgesic effect 10% (Sprague-Dawley rats; duration in hours): 5.0 H
% Analgesic effect 20% (Sprague-Dawley rats; duration in hours): 4.4 H
% Analgesic effect 50% (Sprague-Dawley rats; duration in hours): 2.5 H
10% analgesic effect (Sprague-Dawley rats; rats, intramuscular injection): 2.4 h
20% analgesic effect (Sprague-Dawley rats; rats, intramuscular injection): 2.1 h
50% analgesic effect (Sprague-Dawley rats; rats, intramuscular injection, 25 micromole/kg): 1.1 h
10% analgesic effect (Sprague-Dawley rats; table 2): 12 h
50% analgesic effect (Sprague-Dawley rats; table 2): 2.5 h
analgesic effect for intramuscular injection (duration) ([2]; 10 mg/kg): 0.75 h
half-life [4]: 0.85 h

CO[C@]12CC[C@@]3(C[C@@H]1[C@](C)(O)C(C)(C)C)[C@H]1Cc4ccc(O)c5c4[C@@]3(CCN1CC1CC1)[C@H]2O5 [buprenorphine]
dose needed to elicit the same analgesic effect [1, 6]: 0.3 mg
